Reference: ChEMBL document CHEMBL1201862, “PubChem BioAssay data set” (2004)
Calls of active or inactive are those of the source.

Tests used:
Chaperone protein dnaK = Chaperone protein dnaK (Escherichia coli, UniProt C3TRK2); assay: E. coli DnaK binders, calorimetric Kd – biophysical, isothermal titration calorimetry, beta-domain, full-length DnaK, orthogonal assay for DnaK modulator project, SAR follow-up (AID 1495)
[1] = target: Neuropeptides B/W receptor type 1 (Homo sapiens, UniProt P48145); assay: Fluorescence-based dose response cell-based high throughput screening assay to identify antagonists of the G-protein coupled receptor 7 (GPR7). [Related pubchem assays: 1952 (Screening assay (GPR7 antagonists).), 1880 (Summary AID.)]; assay type: functional
Chain of Neuropeptides B/W receptor type 1 (P48145 whole entry): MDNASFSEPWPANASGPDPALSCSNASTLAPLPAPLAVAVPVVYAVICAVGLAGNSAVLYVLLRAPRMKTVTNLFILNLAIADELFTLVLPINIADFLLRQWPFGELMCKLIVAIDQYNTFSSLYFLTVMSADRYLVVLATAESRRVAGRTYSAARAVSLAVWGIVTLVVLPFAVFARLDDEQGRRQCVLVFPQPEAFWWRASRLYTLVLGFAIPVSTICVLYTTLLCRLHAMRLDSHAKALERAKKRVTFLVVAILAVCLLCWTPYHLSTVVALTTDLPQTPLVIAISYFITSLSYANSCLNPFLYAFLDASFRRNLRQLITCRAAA

[2] = target: Melanin-concentrating hormone receptor 1 (Homo sapiens, UniProt Q99705); assay: Fluorescence-based counterscreen for antagonists of the G-protein coupled receptor 7 (GPR7): cell-based high throughput dose response assay to identify antagonists of the melanin-concentrating hormone receptor 1 (MCHR1).; assay type: functional
Chain of Melanin-concentrating hormone receptor 1 (Q99705 whole entry): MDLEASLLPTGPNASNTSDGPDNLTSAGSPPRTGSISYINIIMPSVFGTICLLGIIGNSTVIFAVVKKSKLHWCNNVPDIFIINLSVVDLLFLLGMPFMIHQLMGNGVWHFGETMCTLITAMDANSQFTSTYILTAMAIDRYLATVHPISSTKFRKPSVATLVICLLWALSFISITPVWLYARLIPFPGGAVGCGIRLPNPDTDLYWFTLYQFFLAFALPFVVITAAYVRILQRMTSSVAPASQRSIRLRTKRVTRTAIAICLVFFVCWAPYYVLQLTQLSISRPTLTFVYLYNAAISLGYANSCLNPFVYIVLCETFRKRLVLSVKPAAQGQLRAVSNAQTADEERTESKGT

Aspartyl aminopeptidase = Aspartyl aminopeptidase (Plasmodium falciparum 3D7, UniProt Q8I2J3)
Chain of Aspartyl aminopeptidase (Q8I2J3 whole entry): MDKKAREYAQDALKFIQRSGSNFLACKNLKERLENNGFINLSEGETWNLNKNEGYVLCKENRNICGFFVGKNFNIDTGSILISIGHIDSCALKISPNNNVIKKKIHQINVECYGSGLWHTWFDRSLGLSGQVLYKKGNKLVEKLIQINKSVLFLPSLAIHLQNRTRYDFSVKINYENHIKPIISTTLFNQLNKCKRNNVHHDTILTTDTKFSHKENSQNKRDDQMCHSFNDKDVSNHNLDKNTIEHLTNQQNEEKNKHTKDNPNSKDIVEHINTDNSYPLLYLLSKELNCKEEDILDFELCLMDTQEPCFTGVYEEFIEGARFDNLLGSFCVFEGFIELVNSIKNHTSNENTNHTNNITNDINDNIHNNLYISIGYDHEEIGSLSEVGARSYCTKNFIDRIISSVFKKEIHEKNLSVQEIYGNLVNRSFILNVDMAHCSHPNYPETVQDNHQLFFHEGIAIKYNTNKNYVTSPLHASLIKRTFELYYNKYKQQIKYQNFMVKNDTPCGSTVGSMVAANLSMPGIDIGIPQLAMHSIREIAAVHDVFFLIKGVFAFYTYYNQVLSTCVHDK

Procathepsin L = Procathepsin L (Homo sapiens, UniProt P07711)
Chain of Procathepsin L (P07711 whole entry): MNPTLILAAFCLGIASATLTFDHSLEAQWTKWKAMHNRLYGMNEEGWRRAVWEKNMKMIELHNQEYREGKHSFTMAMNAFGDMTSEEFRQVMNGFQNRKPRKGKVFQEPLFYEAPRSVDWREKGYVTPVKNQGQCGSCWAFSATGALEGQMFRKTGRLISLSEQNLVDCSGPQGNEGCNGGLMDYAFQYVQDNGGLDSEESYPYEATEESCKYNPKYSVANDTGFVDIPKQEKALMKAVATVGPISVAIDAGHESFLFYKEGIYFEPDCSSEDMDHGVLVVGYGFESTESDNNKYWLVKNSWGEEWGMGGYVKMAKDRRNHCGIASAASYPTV

[3] = target: T1, Mannose-6-phosphate isomerase (Homo sapiens, UniProt P34949); assay: MPI inhibition at elevated mannose 6-phosphate – biochemical, fluorescence intensity, high mannose 6-phosphate, primary screen (AID 1220)
T1 sequence (P34949 whole entry): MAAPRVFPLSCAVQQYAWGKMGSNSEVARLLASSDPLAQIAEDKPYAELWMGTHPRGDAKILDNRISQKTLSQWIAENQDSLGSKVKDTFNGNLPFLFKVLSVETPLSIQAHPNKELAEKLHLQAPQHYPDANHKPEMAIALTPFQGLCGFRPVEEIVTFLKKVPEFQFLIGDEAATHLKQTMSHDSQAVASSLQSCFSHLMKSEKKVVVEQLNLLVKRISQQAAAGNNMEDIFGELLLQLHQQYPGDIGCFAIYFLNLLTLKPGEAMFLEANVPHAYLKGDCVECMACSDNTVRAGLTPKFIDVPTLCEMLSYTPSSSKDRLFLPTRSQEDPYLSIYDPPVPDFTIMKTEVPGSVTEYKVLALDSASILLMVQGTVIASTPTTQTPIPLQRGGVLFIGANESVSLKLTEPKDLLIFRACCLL

[4] = target: DNA dC->dU-editing enzyme APOBEC-3A (Homo sapiens, UniProt P31941); assay: A3A deaminase inhibition for selectivity – biochemical, dose response (AID 504722); assay type: functional
Chain of DNA dC->dU-editing enzyme APOBEC-3A (P31941 whole entry): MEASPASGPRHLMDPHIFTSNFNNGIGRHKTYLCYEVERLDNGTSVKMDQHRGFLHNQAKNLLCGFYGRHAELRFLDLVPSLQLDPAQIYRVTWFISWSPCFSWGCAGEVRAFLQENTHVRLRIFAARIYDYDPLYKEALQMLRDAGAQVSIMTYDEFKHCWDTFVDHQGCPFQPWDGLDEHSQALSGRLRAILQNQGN

[5] = target: DNA dC->dU-editing enzyme APOBEC-3G (Homo sapiens, UniProt Q9HC16); assay: Dose Response confirmation of small molecule APOBEC3G DNA Deaminase Inhibitors via a fluorescence-based single-stranded DNA deaminase assay. [Related pubchem assays (depositor defined):AID493012, AID493028]; assay type: functional
[6] = target: T1, Mannose-6-phosphate isomerase; assay: MPI enzyme activity inhibition – biochemical, fluorescence intensity, coupled assay, primary screen (AID 1209)
cells = assay type: functional
[7] = target: T2, Polyadenylate-binding protein 1 (Homo sapiens, UniProt P11940); assay: MLLE binding blockers, Cy5 peptide tracer – biochemical, fluorescence polarization, Cy5-PAM2 peptide, secondary, miRNA deadenylation inhibitor project, dose response (AID 602260); assay type: functional; details: read-out: IC50_Mean
T2 sequence (P11940 whole entry, the tested form may be a part): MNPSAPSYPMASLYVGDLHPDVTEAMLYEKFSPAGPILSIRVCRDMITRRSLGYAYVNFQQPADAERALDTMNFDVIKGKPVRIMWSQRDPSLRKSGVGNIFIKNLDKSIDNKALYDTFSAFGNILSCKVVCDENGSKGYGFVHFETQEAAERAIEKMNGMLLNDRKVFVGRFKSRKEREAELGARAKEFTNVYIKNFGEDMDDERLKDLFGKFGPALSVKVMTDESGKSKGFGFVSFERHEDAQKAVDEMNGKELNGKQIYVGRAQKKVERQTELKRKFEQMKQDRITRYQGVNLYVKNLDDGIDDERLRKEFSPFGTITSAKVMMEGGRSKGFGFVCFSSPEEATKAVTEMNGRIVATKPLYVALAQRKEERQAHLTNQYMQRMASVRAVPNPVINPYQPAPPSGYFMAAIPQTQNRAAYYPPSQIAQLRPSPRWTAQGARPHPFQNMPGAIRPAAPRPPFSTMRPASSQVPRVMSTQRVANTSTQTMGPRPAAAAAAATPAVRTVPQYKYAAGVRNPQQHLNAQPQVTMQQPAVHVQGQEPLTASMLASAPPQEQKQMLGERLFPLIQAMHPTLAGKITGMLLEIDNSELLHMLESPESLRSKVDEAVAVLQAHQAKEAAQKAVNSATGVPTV

[8] = target: T2, Polyadenylate-binding protein 1; assay: MLLE domain peptide-binding blockers, IC50 – biochemical, fluorescence polarization, FITC-PAM2 peptide, dose response (AID 602259); assay type: functional; details: read-out: IC50_Mean
Caspase-7 = Caspase-7 (Homo sapiens, UniProt P55210); assay: activation of caspase-7 zymogen – biochemical, absorbance, counter-screen for procaspase-3 activator project, dose response (AID 489013)
Caspase-3 = target: T3, Caspase-3 (Homo sapiens, UniProt P42574); assay: activation of caspase-3 zymogen – biochemical, absorbance, dose response (AID 489014)
T3 sequence (P42574 whole entry): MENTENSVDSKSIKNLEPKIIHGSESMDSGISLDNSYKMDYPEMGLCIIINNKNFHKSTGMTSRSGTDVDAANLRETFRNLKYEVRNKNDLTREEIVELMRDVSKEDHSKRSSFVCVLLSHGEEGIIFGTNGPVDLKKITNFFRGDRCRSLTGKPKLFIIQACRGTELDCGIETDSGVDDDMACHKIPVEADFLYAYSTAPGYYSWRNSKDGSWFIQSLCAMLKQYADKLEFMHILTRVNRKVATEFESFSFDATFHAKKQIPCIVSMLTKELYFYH

[9] = target: T1, Mannose-6-phosphate isomerase; assay: phosphomannose isomerase inhibition – biochemical, fluorescence intensity, confirmation (AID 1535)
[10] = target: Phosphoethanolamine/phosphocholine phosphatase (Homo sapiens, UniProt Q8TCT1); assay: SAR assay for compounds that inhibit PHOSPHO1. [Related pubchem assays (depositor defined):AID1545, AID1565, AID1574]
Phosphomannomutase 2 = Phosphomannomutase 2 (Homo sapiens, UniProt O15305); assay: Counter screen SAR assay for PMM2 inhibitors via a fluorescence intensity assay. [Related pubchem assays (depositor defined):AID1545, AID1574]
Chain of Phosphomannomutase 2 (O15305 whole entry): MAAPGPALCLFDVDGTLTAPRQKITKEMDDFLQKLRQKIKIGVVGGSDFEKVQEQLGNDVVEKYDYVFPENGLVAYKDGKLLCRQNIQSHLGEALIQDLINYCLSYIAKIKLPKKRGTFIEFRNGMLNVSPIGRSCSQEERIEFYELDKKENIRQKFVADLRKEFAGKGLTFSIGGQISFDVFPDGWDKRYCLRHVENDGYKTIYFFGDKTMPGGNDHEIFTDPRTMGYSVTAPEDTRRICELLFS

[11] = target: Kappa-type opioid receptor (Homo sapiens, UniProt P41145); assay: SAR analysis of small molecule agonists of the kappa opioid receptor via a luminescent beta-arrestin assay - Set 2. [Related pubchem assays (depositor defined):AID1777, AID1785, AID1786, AID1966, AID2133, AID2136, AID2284, AID449737]; assay type: functional
Chain of Kappa-type opioid receptor (P41145 whole entry): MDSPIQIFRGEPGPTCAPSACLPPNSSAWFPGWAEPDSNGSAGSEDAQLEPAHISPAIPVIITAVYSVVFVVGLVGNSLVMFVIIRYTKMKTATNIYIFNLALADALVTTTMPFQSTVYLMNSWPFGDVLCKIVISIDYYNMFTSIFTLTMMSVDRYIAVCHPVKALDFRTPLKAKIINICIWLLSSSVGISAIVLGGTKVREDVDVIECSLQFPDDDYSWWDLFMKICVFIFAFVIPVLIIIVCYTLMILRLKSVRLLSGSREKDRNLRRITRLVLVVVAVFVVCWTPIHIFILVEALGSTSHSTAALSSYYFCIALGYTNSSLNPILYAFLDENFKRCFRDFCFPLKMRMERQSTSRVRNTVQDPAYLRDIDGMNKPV

[12] = target: T2, Polyadenylate-binding protein 1; assay: PABP inhibition in translation initiation, SAR follow-up (AID 435018); assay type: functional
[13] = target: Eukaryotic translation initiation factor 4H (Homo sapiens, UniProt Q15056); assay: inhibitors of translation initiation factor eIF4H – SAR follow-up (AID 435011); assay type: functional
[14] = target: T4, Intestinal-type alkaline phosphatase (Homo sapiens, UniProt P09923); assay: activation of human intestinal alkaline phosphatase – biochemical, luminescent, uHTS hits, set 2, dose response (AID 488817); assay type: functional;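 also: potency of activators that raise enzyme activity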
T4 sequence (P09923 whole entry): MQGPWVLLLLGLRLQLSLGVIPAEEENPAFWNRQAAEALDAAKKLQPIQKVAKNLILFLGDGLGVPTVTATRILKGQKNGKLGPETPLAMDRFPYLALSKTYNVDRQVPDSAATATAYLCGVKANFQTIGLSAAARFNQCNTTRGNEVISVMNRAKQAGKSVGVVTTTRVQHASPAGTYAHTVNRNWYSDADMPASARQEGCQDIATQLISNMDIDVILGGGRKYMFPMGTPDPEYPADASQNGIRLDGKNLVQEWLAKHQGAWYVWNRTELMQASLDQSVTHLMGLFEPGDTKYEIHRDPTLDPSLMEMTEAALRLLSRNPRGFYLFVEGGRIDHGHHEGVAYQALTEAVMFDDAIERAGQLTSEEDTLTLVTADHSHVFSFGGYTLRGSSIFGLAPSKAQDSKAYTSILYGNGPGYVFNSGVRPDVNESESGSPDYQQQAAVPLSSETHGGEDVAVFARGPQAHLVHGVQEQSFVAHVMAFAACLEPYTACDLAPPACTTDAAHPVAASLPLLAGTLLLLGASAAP

[15] = viability loss of HPDE-C7K cells – cell-based, fluorescence, HTS, primary screen (AID 431); assay type: functional; details: Homo sapiens
[16] = target: Intestinal-type alkaline phosphatase (Mus musculus, UniProt P24822); assay: PubChem AID 488874; assay type: functional
[17] = HPDE-C7 pancreatic duct cell viability loss – fluorescence, HTS (AID 430); assay type: functional, cell-based; details: Homo sapiens
[18] = target: T4, Intestinal-type alkaline phosphatase; assay: human intestinal alkaline phosphatase activators, dose response, biochemical, luminescence, uHTS hits (AID 463120); assay type: functional
[19] = target: T5, Alkaline phosphatase, tissue-nonspecific isozyme (Homo sapiens, UniProt P05186); assay: activation of tissue-nonspecific alkaline phosphatase – biochemical, TNAP isozyme, human IAP uHTS hits, selectivity assay for human IAP activator project, dose response (AID 488886); assay type: functional;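 also: potency of compounds raising TNAP activity as a selectivity check on IAP activators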
T5 sequence (P05186 whole entry): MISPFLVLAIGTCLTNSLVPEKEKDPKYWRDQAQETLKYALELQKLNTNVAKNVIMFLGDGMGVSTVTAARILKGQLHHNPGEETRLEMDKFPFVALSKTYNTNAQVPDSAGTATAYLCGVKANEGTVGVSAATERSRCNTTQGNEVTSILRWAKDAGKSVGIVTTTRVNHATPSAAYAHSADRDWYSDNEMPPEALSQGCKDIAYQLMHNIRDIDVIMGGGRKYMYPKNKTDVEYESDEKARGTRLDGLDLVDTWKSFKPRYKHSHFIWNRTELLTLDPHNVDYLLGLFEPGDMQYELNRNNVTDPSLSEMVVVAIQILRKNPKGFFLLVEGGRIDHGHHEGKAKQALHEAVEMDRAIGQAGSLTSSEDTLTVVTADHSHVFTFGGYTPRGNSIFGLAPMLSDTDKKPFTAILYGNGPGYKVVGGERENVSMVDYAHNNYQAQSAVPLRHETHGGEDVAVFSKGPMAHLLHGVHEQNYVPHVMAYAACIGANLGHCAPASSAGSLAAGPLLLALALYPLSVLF

[20] = target: G-protein coupled receptor 55 (Homo sapiens, UniProt Q9Y2T6); assay: selective activators of receptor GPR55 – imaging, U2OS cells, beta-arrestin-GFP redistribution, primary screen (AID 1961); assay type: functional
Chain of G-protein coupled receptor 55 (Q9Y2T6 whole entry): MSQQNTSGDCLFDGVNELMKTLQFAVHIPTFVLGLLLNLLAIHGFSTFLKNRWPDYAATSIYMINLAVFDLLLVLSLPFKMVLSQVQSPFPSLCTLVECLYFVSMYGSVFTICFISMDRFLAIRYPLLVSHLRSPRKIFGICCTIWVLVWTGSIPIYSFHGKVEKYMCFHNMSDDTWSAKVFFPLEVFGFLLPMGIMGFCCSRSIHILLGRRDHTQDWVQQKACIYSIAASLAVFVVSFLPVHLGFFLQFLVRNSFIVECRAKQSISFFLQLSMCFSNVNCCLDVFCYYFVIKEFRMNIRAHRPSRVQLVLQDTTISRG

Chain of Chaperone protein dnaK (C3TRK2 whole entry): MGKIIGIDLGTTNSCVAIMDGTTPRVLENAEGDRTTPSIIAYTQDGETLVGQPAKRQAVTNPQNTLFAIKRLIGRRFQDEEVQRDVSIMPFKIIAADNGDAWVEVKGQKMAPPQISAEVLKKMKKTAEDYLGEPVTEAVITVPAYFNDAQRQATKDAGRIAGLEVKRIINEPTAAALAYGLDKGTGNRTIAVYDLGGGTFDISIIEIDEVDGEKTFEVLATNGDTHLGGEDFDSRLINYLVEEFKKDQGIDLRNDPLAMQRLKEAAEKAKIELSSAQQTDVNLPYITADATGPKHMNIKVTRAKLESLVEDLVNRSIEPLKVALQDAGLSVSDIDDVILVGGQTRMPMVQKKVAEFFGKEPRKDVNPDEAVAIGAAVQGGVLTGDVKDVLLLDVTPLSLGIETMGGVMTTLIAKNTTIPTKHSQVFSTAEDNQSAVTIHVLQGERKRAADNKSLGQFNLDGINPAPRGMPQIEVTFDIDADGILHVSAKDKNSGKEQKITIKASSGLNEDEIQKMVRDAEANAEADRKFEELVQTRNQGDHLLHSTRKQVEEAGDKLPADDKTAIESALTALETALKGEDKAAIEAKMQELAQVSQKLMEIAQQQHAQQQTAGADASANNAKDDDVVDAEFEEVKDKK

In the case of `CC(Cc1ccc(F)cc1)NC(=O)c1cccs1` (configuration not stated), the Kd (Chaperone protein dnaK) is reported as 28 µM (inactive).
For `O=C(NCc1cccnc1)c1cc(-c2ccc(Cl)cc2)oc1C(F)(F)F`, the IC50 [1] was > 14.6 µM (not active) and the IC50 [2] was 11.9 µM (not active).
For `Cc1cc(C)n2c(S)nnc2n1`, the IC50 (Aspartyl aminopeptidase) was 6.41 µM (active), the IC50 (Procathepsin L) was > 59.6 µM (not active) and the IC50 [3] was > 50 µM (not active). For the same compound, the IC50 [4] was > 100 µM (inactive), the IC50 [5] was 17 µM (active) and the IC50 [6] was 43.2 µM (active).
In the case of `COc1ccc(C2=NC(=O)/C(=C\c3cc(OC)c(OC)c(OC)c3)O2)cc1`, the IC50 (cells) is reported as 1.18 µM (active), the IC50 [7] is reported as > 66 µM (inactive) and the IC50 [8] is reported as > 66 µM (inactive). For the same compound, the EC50 (Caspase-7) was > 85.2 µM (inactive) and the EC50 (Caspase-3) was 420 nM (active).
With `O=C1c2ccccc2C(=O)c2c1ccc1c(=O)n(-c3ccc(Cl)cc3)sc21` the IC50 [9] was > 50 µM (inactive), the IC50 [10] was 820 nM (active) and the IC50 (Phosphomannomutase 2) was > 100 µM (inactive).
In the case of `O=C(CN(Cc1cccs1)C(=O)c1cccnc1)NC1CCCCC1`, the EC50 [11] is reported as > 20 µM (inactive).
In the case of `COCc1ccc(C(=O)OCC(=O)Nc2ccc([N+](=O)[O-])cc2OC)cc1`, the IC50 [12] is reported as > 100 µM (inactive) and the IC50 [13] is reported as > 100 µM (inactive).
In the case of `O=c1cc(-c2ccccc2)[nH]n1-c1nc2ccccc2[nH]1`, the EC50 [14] is reported as 14.8 µM (active), the EC50 [15] is reported as 2.21 µM (active) and the IC50 [16] is reported as 36.8 µM (active). For the same compound, the EC50 [17] was 2.73 µM (active), the EC50 [18] was 11.5 µM (active) and the EC50 [19] was 17.1 µM (active).
For `NC(=S)N/N=C/c1c[nH]c2ccc(OCc3ccccc3)cc12`, the EC50 [20] was 874 nM (active).
